Patent US12656349B2, “Measurement of bevacizumab-insensitive vascular endothelial growth factor-a” (Board of Regents, The University of Texas System, priority 2019, dated 2026)

Assays:
sEV-VEGF = target: T1, sEV-VEGF (Homo sapiens, UniProt P15692); experiment: Flow cytometric analysis of binding of coupled microbeads to VEGF on the surface of sEVs; conditions: exo-FITC fluorescence
T1 construct: Parental ES2, SKOV3, HCT116 and 786-0 cell lines were purchased from ATCC; endogenous in cells; host or cells: sEVs of parental (VEGF+/+) ES2 and HCT116 cells
T1 sequence (P15692 27-215 isoform P15692-2): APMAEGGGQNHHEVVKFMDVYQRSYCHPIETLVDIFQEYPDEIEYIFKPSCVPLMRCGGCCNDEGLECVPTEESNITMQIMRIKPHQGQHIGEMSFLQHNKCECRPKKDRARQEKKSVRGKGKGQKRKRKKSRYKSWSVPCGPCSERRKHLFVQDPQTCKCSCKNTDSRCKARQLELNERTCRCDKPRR
Protocol: To detect sEV-associated proteins by using Ab-coupled microbeads, acquisition and analysis of flow cytometry data were performed using a FACSCalibur™ cytometer equipped with CellQuest™ Pro software (BD Biosciences). […] Thereafter, microbeads were incubated with sEVs (100 μg, approximately 2×10^8 vesicles) at 4° C. for 16 h with rotation, washed with 1% BSA in PBS, stained with exo-FITC dye, and then acquired. Binding of Ab to protein on the surface of sEVs was evaluated by analyzing exo-FITC fluorescence in the gated population of singlet microbeads. A minimum of 10,000 gated events was analyzed for each sample. […] Following washing, microbeads were acquired and PerCP fluorescence analyzed in the gated population of singlet microbeads. […] Three independent experiments were performed for each assay. Contour plots were generated by using CellQuest™ Pro software.

HUVEC = experiment: Tube formation assay in HUVEC; type: cell-based, human
Protocol: (§1) Uptake of sEVs was blocked by treating HUVEC with chlorpromazine (15 μM) or dynasore (50 μM) for 30 min prior to addition of sEVs. As a negative control, HUVEC were pretreated with DMSO solvent (0.1%). VEGFR signaling was blocked by treating HUVEC with axitinib (1 nM) or vandetanib (1 μM) for 2 h or with neutralizing Ab to VEGFR2 (250 ng/mL) for 1 h prior to addition of sEVs or recombinant VEGF. […] Thereafter, mixtures were added to HUVEC cultures. To detect intracellular VEGF, cancer cells where indicated were incubated at 37° C. for 6 h with brefeldin A (BioLegend) (5 μg/mL) to block protein secretion and then harvested.
Wells of 96-well plates were coated with growth factor-reduced Matrigel (BD Biosciences) (50 μL/well) and incubated at 37° C. for 30 min. HUVEC (10^4 cells/well) were then seeded in FBS-free Medium 199 without or with addition of sEVs (100 μg/mL) or recombinant VEGF (1 ng/mL), or seeded in whole or sEV-depleted conditioned media. Following incubation at 37° C. for 4 h, capillary tube structures were visualized under a Nikon TS100 light microscope attached to a digital camera. In each experiment, images of 2 to 3 random 100× fields of each well were captured by using NIS Element BR 4 software (Nikon). The number of tubes in each field was quantified by using NIH Image) software with Angiogenesis Analyzer plugin, and an average calculated for each well. […]

parental HCT116 cells = experiment: Nude mice with s.c. tumors from parental HCT116 cells, tumor volume and plasma human VEGF; type: in vivo
Protocol: (§2) Animal studies were conducted in compliance with protocols approved by the UTMDACC Institutional Animal Care and Use Committee. Four-week-old female nude mice (purchased from UTMDACC animal facility) were used to propagate xenografts. To evaluate VEGF levels in ascites, mice were inoculated i.p, with 1×10^6 ES2 VEGF^+/+ cells, and euthanized by CO2 asphyxiation upon formation of morbid ascites (median survival time of 3 weeks), To evaluate the effects of sEVs, mice were inoculated i.p. with 2×10^6 GFP-expressing ES2 VEGF^−/− cells. […] Mice were treated with these agents i.p. 3 times a week for 2 weeks and thereafter euthanized. […] The 6 doses of sEVs at 500 μg per dose was based on the average volume of ascites and concentration of tumor-derived sEV-VEGF in ascites that forms in mice with i.p. xenografts derived from ES2 VEGF^+/+ cells (FIGS. 15A, 15B). Following euthanasia, volumes of ascites were measured. GFP-expressing tumors were visualized under a Leica MZMLIII stereomicroscope equipped with a GFP filter set and digital camera. Images were captured by using Picture Frame software (Optronics). Tumor burden was quantified by measuring areas of fluorescence signals within the abdominal cavity in captured images by using Image Pro Plus software (Media Cybernetics) as performed previously (Ko et al., 2009). To visualize intratumoral blood vessels, sections of omental tumor tissues, frozen in Optimal Cutting Temperature compound (Thermo Fisher Scientific), were stained with Ab to GFP (1:500 dilution) and CD31 (1:50 dilution) and with DAPI, and viewed under a Nikon 80i fluorescence microscope. Numbers of intratumoral CD31^+ cells were counted in 5 random 100× fields per section and an average score was determined for each mouse. To evaluate circulating VEGF levels, mice were inoculated s.c. with 5×10^6 ES2 VEGF^+/+ cells or HCT116 VEGF^+/+ cells. At 7 days thereafter when tumors were palpable, blood samples were collected retro-orbitally. […] Volumes of s.c. tumors were calculated from 2 perpendicular measurements of tumor diameters taken using calipers. […]

parental ES2 cells = experiment: Nude mice with s.c. tumors from parental ES2 cells, tumor volume and plasma human VEGF; type: in vivo
Protocol: as §2

VEGFR2 = VEGFR2 phosphorylation in HUVEC (immunoblot); type: cell-based, human
Protocol: as §1
Extracts were prepared by lysing whole cells and sEVs in M-PER buffer (Thermo Fisher Scientific). Protein concentrations of lysates were determined by Bradford assay (BioRad). Lysates were separated by SDS-polyacrylamide gel electrophoresis under non-reducing conditions to detect VEGF and under reducing conditions to detect other proteins, and then transferred to polyvinylidene difluoride membrane (GE Healthcare). Membranes were blocked with 5% non-fat milk in Tris-buffered saline with 0.1% Tween-20 (TBS-T), incubated with primary Ab at 4° C. for 16 h, and then washed with TBS-T buffer. Primary Ab were used at the following dilutions: 1:1000 (for Ab to TSG101, α-actinin-4, HSP90B1, calnexin, phospho-VEGFR2, VEGFR2, VEGF); 1:2000 (for Ab to HSP70); 1:5000 (for Ab to actin). Thereafter, membranes were incubated with 1-IRP-conjugated secondary Ab (1:5000 dilution), washed and visualized with ECL detection reagent (Millipore). Immunoblot data was verified in 3 independent experiments.

ES2 VEGF^−/− cells = experiment: Nude mice with i.p. ES2 VEGF−/− xenografts administered sEVs or recombinant VEGF; type: in vivo; conditions: vs control Ig
Protocol: Animal studies were conducted in compliance with protocols approved by the UTMDACC Institutional Animal Care and Use Committee. Four-week-old female nude mice (purchased from UTMDACC animal facility) were used to propagate xenografts. To evaluate VEGF levels in ascites, mice were inoculated i.p, with 1×10^6 ES2 VEGF^+/+ cells, and euthanized by CO2 asphyxiation upon formation of morbid ascites (median survival time of 3 weeks), To evaluate the effects of sEVs, mice were inoculated i.p. with 2×10^6 GFP-expressing ES2 VEGF^−/− cells. […] Mice were treated with these agents i.p. 3 times a week for 2 weeks and thereafter euthanized. […] The 6 doses of sEVs at 500 μg per dose was based on the average volume of ascites and concentration of tumor-derived sEV-VEGF in ascites that forms in mice with i.p. xenografts derived from ES2 VEGF^+/+ cells (FIGS. 15A, 15B). Following euthanasia, volumes of ascites were measured. GFP-expressing tumors were visualized under a Leica MZMLIII stereomicroscope equipped with a GFP filter set and digital camera. Images were captured by using Picture Frame software (Optronics). Tumor burden was quantified by measuring areas of fluorescence signals within the abdominal cavity in captured images by using Image Pro Plus software (Media Cybernetics) as performed previously (Ko et al., 2009). To visualize intratumoral blood vessels, sections of omental tumor tissues, frozen in Optimal Cutting Temperature compound (Thermo Fisher Scientific), were stained with Ab to GFP (1:500 dilution) and CD31 (1:50 dilution) and with DAPI, and viewed under a Nikon 80i fluorescence microscope. Numbers of intratumoral CD31^+ cells were counted in 5 random 100× fields per section and an average score was determined for each mouse. To evaluate circulating VEGF levels, mice were inoculated s.c. with 5×10^6 ES2 VEGF^+/+ cells or HCT116 VEGF^+/+ cells. At 7 days thereafter when tumors were palpable, blood samples were collected retro-orbitally. […] Volumes of s.c. tumors were calculated from 2 perpendicular measurements of tumor diameters taken using calipers. Pre- and post-treatment plasma samples were pre-cleared with Protein G Sepharose 4 Fast Flow (GE Healthcare) at 4° C. for 16 h to remove Ab-bound VEGF and thereafter were assayed for VEGF by ELISA.

[1] = system: VEGF in cancer cell-conditioned media; experiment: Quantification of unbound bevacizumab in whole and sEV-depleted cancer cell-conditioned media (ELISA); type: binding, human
Protocol: Samples of plasma and ascites (diluted 1:10 in PBS) and conditioned media were centrifuged at 2,400×g at 4° C. for 10 min to remove intact cells and cell debris. Thereafter, supernatants were filtered through a 0.2 μm pore size filter to remove larger particles. A 300 μL aliquot of filtrate was retained for analysis of VEGF. The remainder of the filtrate was centrifuged at 100,000×g at 4° C. for 18 h to remove sEVs. Thereafter, the supernatant (comprising of sEV-depleted sample) was assayed for VEGF.
Wells of 96-well High Bind microplates were coated with recombinant VEGF (100 ng) at RT for 16 h, After washing three times with wash buffer (R&D Systems), wells were blocked with 10% goat serum for 1 h and washed again. […] Absorbance was read at 450 nm.

[2] = endothelial cells stimulated with VEGF+/+ sEVs
[3] = endothelial cells stimulated with recombinant VEGF

VEGFR1/R2-Fc: chimera of the ligand-binding domains of VEGFR1 and VEGFR2 fused to the Fc portion of human IgG1
Binding to VEGF+/+ sEVs (sEV-VEGF; coupled microbeads incubated with VEGF+/+ sEVs): bound
Binding to VEGF−/− sEVs (sEV-VEGF; coupled microbeads incubated with VEGF−/− sEVs (negative control)): not

bevacizumab: humanized monoclonal antibody to human vascular endothelial growth factor (VEGF)
Tube formation (HUVEC; [2]): not
Tube formation (HUVEC; [3]): blocked
sEV-VEGF levels in plasma (parental HCT116 cells; HCT116, estimated from difference between whole and sEV-depleted plasma, following treatment, P<0.05): increased
non-sEV-VEGF levels in plasma (parental HCT116 cells; HCT116, sEV-depleted plasma, following treatment, P<0.001): decreased
Tumor growth (parental HCT116 cells; s.c. HCT116 tumors, treatment for one week): did not inhibit
sEV-VEGF levels in plasma (parental ES2 cells; ES2, estimated from difference between whole and sEV-depleted plasma, following treatment, P<0,01): increased
non-sEV-VEGF levels in plasma (parental ES2 cells; ES2, sEV-depleted plasma, following treatment, P<0.05): decreased
Tumor growth (parental ES2 cells; s.c. ES2 tumors, treatment for one week): did not inhibit
VEGFR2 phosphorylation (VEGFR2; [2]): not
VEGFR2 phosphorylation (VEGFR2; [3]): blocked
VEGFR2 phosphorylation (VEGFR2; endothelial cells stimulated with sEV-depleted media): completely blocked
VEGFR2 phosphorylation (VEGFR2; endothelial cells stimulated with whole media): only partially inhibited
Angiogenesis (ES2 VEGF^−/− cells; mice administered VEGF+/+ sEVs): not
Ascites (ES2 VEGF^−/− cells; mice administered VEGF+/+ sEVs): not
Tumor growth (ES2 VEGF^−/− cells; mice administered VEGF+/+ sEVs): not
Tumor growth (ES2 VEGF^−/− cells; mice administered recombinant VEGF189, 5 mg/kg i.p. 3 times a week for 2 weeks, P<0.001): inhibited
Angiogenesis (ES2 VEGF^−/− cells; mice administered recombinant VEGF189, P<0.0001): inhibited
Ascites (ES2 VEGF^−/− cells; mice administered recombinant VEGF189, P<0.001): inhibited
Levels of unbound bevacizumab in whole media compared with sEV-depleted media ([1]; cancer cell-conditioned media incubated with bevacizumab): almost identical
Unbound bevacizumab levels ([1]; sEV-depleted media to which recombinant VEGF189 had been added): decrease
